Reference: ChEMBL document CHEMBL4765331, “Amides of pyrrole- and thiophene-fused anthraquinone derivatives: A role of the heterocyclic core in antitumor properties” (Eur J Med Chem, 2020)
Calls of active or inactive are those of the source. No cut-off for these calls is given here.

Columns and labels:
CAPAN-1 = experiment: Antiproliferative activity against human CAPAN-1 cells assessed as inhibition of cell proliferation measured after 72 hrs by MTT assay; format: functional, cell-based; conditions: CAPAN-1, 72 h
HCT-116 [1] = experiment: Antiproliferative activity against human HCT-116 cells assessed as inhibition of cell proliferation measured after 72 hrs by MTT assay; format: functional, cell-based; conditions: HCT-116, 72 h
K562 [2] = experiment: Antiproliferative activity against human K562 cells assessed as inhibition of cell proliferation measured after 72 hrs by MTT assay; format: functional, cell-based; conditions: K562, 72 h
[3] = Antiproliferative activity against P-gp-positive/doxorubicin-resistant human K562/4 cells assessed as inhibition of cell proliferation measured after 72 hrs by MTT assay; format: functional; conditions: K562/4, 72 h
HCT-116 [4] = experiment: Antiproliferative activity against human HCT-116 cells with inactivated p53 gene assessed as inhibition of cell proliferation measured after 72 hrs by MTT assay; format: functional, cell-based; conditions: HCT-116, 72 h
[5] = Resistance index, ratio of IC50 for human P-gp-positive/Doxorubicin-resistant K562/4 cells to IC50 for human K562 cells; format: functional
Calf thymus DNA [6] = experiment: Binding affinity to calf thymus DNA assessed as DNA intercalation by measuring decrease of negative DNA band at 245 nm at 50 uM by circular dichroism spectral analysis; format: tissue-based; conditions: Bos taurus
Calf thymus DNA [7] = experiment: Binding affinity to calf thymus DNA assessed as stoichiometry ratio of compound-DNA complex formation by scatchard plot analysis; conditions: Bos taurus
[8] = Drug uptake in mouse NIH3T3 cells assessed as compound localization in cytoplasm at 1 uM measured after 15 mins by laser scanning microscope; format: ADME, subcellular; conditions: nih3t3, 0.25 h
K562 [9] = experiment: Induction of apoptosis in human K562 cells assessed as viable cells at 1.6 uM measured after 24 hrs by Annexin V-APC/PI staining based flow cytometry assay (reference value: 85.9%); format: functional; conditions: read-out: Activity
K562 [10] = experiment: Induction of apoptosis in human K562 cells assessed as necrotic cells at 1.6 uM measured after 24 hrs by Annexin V-APC/PI staining based flow cytometry assay (reference value: 3.9%); format: functional
K562 [11] = experiment: Induction of apoptosis in human K562 cells assessed as necrotic cells at 1.6 uM measured after 48 hrs by Annexin V-APC/PI staining based flow cytometry assay (reference value: 3.9%); format: functional
P388 = experiment: Antitumour activity against mouse P388 cells xenografted intraperitoneally in BDF1 mouse assessed as mean life span time at 20 mg/kg, ip administered qd for 5 days (reference value: 11.5 +/-0.9 days); format: functional; conditions: dose 20 mg/kg/day; time 5 day
[12] = Selectivity index, ratio of IC50 for human TERT-RPE1 cells to IC50 for human HCT-116 cells; format: toxicity; conditions: TERT-RPE1 cells and HCT-116 cells, read-out: Ratio IC50
[13] = Selectivity index, ratio of IC50 for human TERT-RPE1 cells to IC50 for human K562 cells; format: toxicity; conditions: TERT-RPE1 cells and K562 cells, read-out: Ratio IC50
[14] = Drug uptake in P-gp-positive/doxorubicin-resistant human K562/4 cells; format: ADME
[15] = Drug uptake in human K562i/S9 cells harboring exogenously expressed MDR1/Pgp; format: ADME, cell-based
K562 [16] = experiment: Induction of cell cycle arrest in human K562 cells assessed as accumulation at subG1 phase at 2XIC50 measured after 24 hrs by propidium iodide/RNase staining based flow cytometry; format: functional

Cc1[nH]c2c(O)c3c(c(O)c2c1C(=O)N1CC[C@H](N)C1)C(=O)c1ccccc1C3=O
IC50 (CAPAN-1): 500 nM | IC50 (HCT-116 [1]): 900 nM | IC50 (K562 [2]): 800 nM | IC50 [3]: 21.2 µM | IC50 (HCT-116 [4]): 800 nM | Ratio IC50 [5]: 26.5 | Activity (Calf thymus DNA [6]): Active | Ratio (Calf thymus DNA [7]): 4.6 | Drug uptake [8]: Active | viability at 1.6 µM (K562 [9]): 69.4% | Activity (K562 [10]): 21% | Activity (K562 [11]): 34.8% | Time (P388): 17.6 days | selectivity ratio [12]: 18 | selectivity ratio [13]: 18 | Drug uptake [14]: Active | Drug uptake [15]: Active | Activity (K562 [16]): Active
